The text below walks through data of PMC6024679 (Toxins, 2018).

The subject of one series is mammalian NaVs. The settings on record: cited from earlier work. The text has this: (§1) The first insect NaV gene (para) was cloned from Drosophila melanogaster. After that, lots of studies had cloned NaV genes from many arthropod pests and disease vectors, and most insects have only one para-like NaV gene. […] We speculated that μ-SPRTX-Hv2 is also a broad-spectrum insecticide but it is yet to be experimentally determined. In Blattella ger ...

In a further series the test system is NaV1.7 channel. The settings on record: physiological depolarizing voltages; cited from earlier work.
Source text: as §1

Series [1] concerns cockroaches. The settings on record: cited from earlier work.
The test system of the next series is meal beetles. The settings on record: cited from earlier work.
In series [2] the test system is PaNaV1 and BgNaV1 channels. The following applies: β-Diguetoxin-Dc1a; cited from earlier work.
Series [3] has as its system cockroaches. The series can be described thus: Lethal effect in cockroaches after injection of toxin, LD50 at 24 h. It is filed as in vivo, cockroach. How it is done:
Fifty-six cockroaches were randomly divided into eight groups (n = 7 in each group). Seven groups were used as experimental groups, to which 10 μL toxin solution (dissolved in saline) was injected between the fourth and fifth sternite, at single dose of 0.29, 0.53, 0.96, 1.74, 3.09, 5.56, or 10 nmol/g for each group. The eighth group was used as experimental control and was injected with 10 μL saline. Lethal effect was observed 24 h after injection. The LD50 value was determined by using the improved Karber’s method. For testing the toxicity of μ-SPRTX-Hv2 to mouse, toxin at a single dose of 1.7 nmol/g (7.0 µg/g) was injected intraperitoneally.

Series [4] relates to NaVs in cockroach DUM neurons. Nature of the series: Whole-cell patch-clamp of voltage-gated sodium channels in cockroach DUM neurons. In kind it is cell-based.
A further series deals with DUM HVA CaVs. The series can be described thus: Whole-cell patch-clamp of HVA calcium channels in cockroach DUM neurons. In kind it is cell-based. For orientation: In patch-clamp work, channel activity is measured electrically.
Series [5] concerns tetrodotoxin sensitive NaVs (TTX-S NaVs) in rat DRG neurons. In kind it is cell-based.
In series [6] the test system is HVA CaVs in rat DRG neurons. The series can be described thus: Whole-cell patch-clamp of HVA CaVs in rat DRG neurons. In kind it is cell-based.
Another series concerns hNaV1.5. Nature of the series: Whole-cell patch-clamp of NaV1.5 in HEK293T cells. It is filed as cell-based, human (h, as printed in hNaV1.5).
For the next series, the system named is hNaV1.7. Nature of the series: Whole-cell patch-clamp of NaV1.7 in HEK293T cells. In kind it is cell-based, human (h, as printed in hNaV1.7).
In another series the test system is rNaV1.8. Nature of the series: Whole-cell patch-clamp of NaV1.8 in ND7/23 cells. In kind it is cell-based, rat (r, as printed in rNaV1.8).
The next series deals with mouse. The following applies: 7.0 μg/g (1.7 nmol/g), intraperitoneal, single dose, n = 3.
A further series relates to insect CaVs. The settings on record: ω-hexatoxin-Hv1a; cited from earlier work.

Several values for one entry are separate records, joined by “and”; a condition that tells them apart may be missing. Equal values may be shown once. Read-outs that look alike come from different tables or passages of the source.

As for `NC1=N[C@H](O)[C@H]2[C@H]3O[C@]4(O)O[C@@H]([C@@H](O)[C@@]2(N1)[C@@H]4O)[C@]3(O)CO` [TTX, tetrodotoxin], the “mode of action on mammalian NaVs” value in the series on mammalian NaVs is reported as “physically blocking the ion conducting pathway”.
Take HWTX-IV: toxin acting on NaV1.7 channel: the “effect on steady-state activation curve” value with NaV1.7 channel is given as “did not change the steady-state activation curve”.
For the compound brachyin, the values for the LD50 in the series with cockroaches [1] and in the series with meal beetles were 1.02 pm/g of body weight and 1.55 pm/g of body weight, respectively.
β-Diguetoxin-Dc1a: the “selectivity between PaNaV1 and BgNaV1” value in series [2] is “showed selectivity between the highly conserved PaNaV1 and BgNaV1 channels”.
A word on the IC50: it is the concentration that inhibits the measured activity by half. For the compound μ-sparatoxin-Hv2 [μ-SPRTX-Hv2], the LD50 with cockroaches [3] (cockroaches, calculated) was 11.7 μg/g of body weight. Besides, the LD50 in the series on cockroaches [3] (in vivo, ip) was 3.6 nmol/g of body weight. Moreover, in the series on cockroaches [3] (synthetic toxin, cockroaches, 10 μL in saline injected between fourth and fifth sternite, single dose 0.29-10 nmol/g, n = 7 per group, 24 h after injection, improved Karber's method), the LD50 is reported as 2.8 nmol/g of body weight. Further, in [4], the IC50 is 834 nM and 718 nM; the “Ka (slope factor, steady-state activation) after toxin treatment” value stood at 4.4 ± 0.4 mV; the “Kh (slope factor, steady-state inactivation) after toxin treatment” value is reported as −5.4 ± 0.3 mV; the “Va (steady-state activation) after toxin treatment” value was −23.0 ± 3.7 mV. In [4], the “Vh (steady-state inactivation) after toxin treatment” value is recorded as −38.7 ± 4.1 mV; the “association time constant (τon)” value is recorded as 13.8 ± 1.7 s; the “block of currents across voltages (I–V relationship)” value is listed as “blocked the currents at all voltage tested”; the “effect on initial activation voltage, peak current voltage and reversal voltage” value is “did not affect the initial activation voltage, the peak current voltage and the reversal voltage”. In [4], the “reversibility of block on washing by bath solution perfusion” value is “could not be washed off by bath solution perfusion”. Moreover, the “effect on DUM HVA CaVs currents” value in the series with DUM HVA CaVs is reported as “did not affect the currents of DUM HVA CaVs”. The “effect on TTX-S NaVs currents in rat DRG neurons” value in series [5] was “did not affect the currents”. Further, the “effect on HVA CaVs currents in rat DRG neurons” value in [6] is reported as “did not affect the currents”. The “effect on NaV1.5 currents” value in the series with hNaV1.5 was “did not affect”. For the same compound, the “effect on NaV1.7 currents” value with hNaV1.7 was “did not affect”. Besides, the “effect on NaV1.8 currents” value in the series on rNaV1.8 is on record as “did not affect”. In the series with mouse, the “envenomation symptoms in mouse” value is recorded as “no obvious envenomation symptoms were observed”.
In the case of ω-hexatoxin-Hv1a, the “effect on insect CaVs” value in the series on insect CaVs was “acting on the insect CaVs”.
